MIC data for 15 molecules are collected here from US8088791B2, “Antibacterial agents” (Biots Scientific Management Pty Ltd, priority 2006, dated 2012).

Values after ≈ are worked out from the molar mass of the structure shown.

For one test, the system named is Bacillus subtilis 168CA. In words: Minimum Inhibitory Concentration (MIC) testing, broth microdilution, Bacillus subtilis. It counts as cell-based. The settings on record: Bacillus subtilis 168CA; read-out: Bacillus subtilis MICs Activity. A digest of the protocol:
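MICs were scored A (≦8 μg/ml), B (16–64 μg/ml) or C (>64 μg/ml), read as the lowest concentration preventing visible growth by eye and spectrophotometry. Plates incubated overnight (16–20 h) at 37 °C, inoculum OD 0.09 diluted 1:100 in 2× broth, per NCCLS guidelines.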

Test [1] deals with Staphylococcus aureus ATCC29213. Kind of test: Minimum Inhibitory Concentration (MIC) testing, broth microdilution, Staphylococcus aureus. It counts as cell-based. The settings on record: Staphylococcus aureus ATCC29213; read-out: Staphylococcus aureus MICs Activity. A digest of the protocol: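 Broth microdilution per NCCLS M7-A5 in Mueller Hinton broth, with compound in 1.6% DMSO and inoculum at OD 0.09 diluted 1:100. Plates incubated 16–20 h at 37°C. MIC is the lowest concentration with no visible growth; scored A ≤8, B 16–64, C >64 μg/ml.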

Take `C=CCc1ccc2sc(COc3ccc(F)c(C(N)=O)c3F)nc2c1` [Example 126, 3-(5-Allyl-benzothiazol-2-ylmethoxy)-2,6-difluoro-benzamide]: the MIC (with Bacillus subtilis 168CA; in test [1]) was less than 8 µg/mL in each case.
With `NC(=O)c1c(F)ccc(OCc2nc3cc(Cl)ccc3o2)c1F` [Example 210, 3-[(5-Chloro-1,3-benzoxazol-2-yl)methoxy]-2,6-difluorobenzenecarboxamide], the MIC (with Bacillus subtilis 168CA; in test [1]) was less than 8 µg/mL in each case.
As to `Cc1nn(-c2ccccc2)nc1COc1ccc(F)c(C(N)=O)c1F` [Example 325, 2,6-Difluoro-3-(5-methyl-2-phenyl-2H-[1,2,3]triazol-4-ylmethoxy)-benzamide], the MIC is less than 8 µg/mL in the test with Bacillus subtilis 168CA and 16 to 64 µg/mL (≈ 46.5 to 186 µM) in test [1].
In the same order, the values of `NC(=O)c1c(F)ccc(OCc2csc(-c3cccc(O)c3)n2)c1F` [Example 308, 2,6-Difluoro-3-[2-(3-hydroxy-phenyl)-thiazol-4-ylmethoxy]-benzamide] are less than 8 µg/mL and 16 to 64 µg/mL (≈ 44.2 to 177 µM).
Consider `NC(=O)c1c(F)ccc(OCc2nc3c(Cl)cccc3s2)c1F` [Example 226, 3-[(4-Chloro-1,3-benzothiazol-2-yl)methoxy]-2,6-difluorobenzenecarboxamide], for which the MIC (in the test with Bacillus subtilis 168CA; in test [1]) was 16 to 64 µg/mL (≈ 45.1 to 180 µM) throughout.
For the molecule `NC(=O)c1c(F)ccc(OCc2coc(-c3ccc(Cl)cc3)n2)c1F` [Example 294, 3-[2-(4-Chloro-phenyl)-oxazol-4-ylmethoxy]-2,6-difluoro-benzamide], the MIC (with Bacillus subtilis 168CA; in test [1]) was less than 8 µg/mL in each case.
For the molecule `Cc1noc(C)c1-c1nc(COc2ccc(F)c(C(N)=O)c2F)no1` [Example 145, 3-[5-(3,5-Dimethyl-isoxazol-4-yl)-[1,2,4]oxadiazol-3-ylmethoxy]-2,6-difluoro-benzamide], the MIC with Bacillus subtilis 168CA was 16 to 64 µg/mL (≈ 45.7 to 183 µM); in test [1] it was more than 64 µg/mL.
In the same order, the values of `NC(=O)c1c(F)ccc(OCc2cccs2)c1F` [Example 186, 2,6-Difluoro-3-(2-thienylmethoxy)benzenecarboxamide] are less than 8 µg/mL and 16 to 64 µg/mL (≈ 59.4 to 238 µM).
On the same counts, the results for `NC(=O)c1c(F)ccc(OCc2nc3cc(-c4ccccc4N)ccc3s2)c1F` [Example 141, 3-[5-(2-Amino-phenyl)-benzothiazol-2-ylmethoxy]-2,6-difluoro-benzamide] are less than 8 µg/mL and less than 8 µg/mL.
`NC(=O)c1c(F)ccc(OCc2nc(-c3cccnc3)no2)c1F` [Example 262, 2,6-Difluoro-3-[3-(3-pyridinyl)-1,2,4-oxadiazol-5-yl]methoxybenzenecarboxamide]: the MIC (with Bacillus subtilis 168CA; in test [1]) was 16 to 64 µg/mL (≈ 48.2 to 193 µM) throughout.
As to `N#Cc1ccc(-c2csc(COc3ccc(F)c(C(N)=O)c3F)n2)cc1` [Example 276, 3-[4-(4-Cyano-phenyl)-thiazol-2-ylmethoxy]-2,6-difluoro-benzamide], the MIC (in the test on Bacillus subtilis 168CA; in test [1]) was less than 8 µg/mL throughout.
Regarding `NC(=O)c1c(F)ccc(OCc2coc(-c3cccs3)n2)c1F` [Example 133, 2,6-Difluoro-3-(2-thiophen-2-yl-oxazol-4-ylmethoxy)-benzamide], the MIC (in the test on Bacillus subtilis 168CA; in test [1]) was less than 8 µg/mL throughout.
On to `NC(=O)c1c(F)ccc(OCc2cccc(-c3ccccc3)c2)c1F` [Example 102, 3-(Biphenyl-3-ylmethoxy)-2,6-difluoro-benzamide], for which the MIC (in the test on Bacillus subtilis 168CA; in test [1]) was less than 8 µg/mL each time.
Turning to `NC(=O)c1c(F)ccc(OCc2noc(-c3ccccc3)n2)c1F` [Example 239, 2,6-Difluoro-3-[(5-phenyl-1,2,4-oxadiazol-3-yl)methoxy]benzenecarboxamide], the MIC (with Bacillus subtilis 168CA; in test [1]) was 16 to 64 µg/mL (≈ 48.3 to 193 µM) each time.
Regarding `NC(=O)c1c(F)ccc(OCc2cccc(-n3cccc3)c2)c1F` [Example 161, 2,6-Difluoro-3-(3-pyrrol-1-yl-benzyloxy)-benzamide], the MIC (in the test with Bacillus subtilis 168CA; in test [1]) was less than 8 µg/mL throughout.
